According to ChEMBL document CHEMBL1921720, “A new antifungal briarane diterpenoid from the gorgonian Junceella juncea Pallas” (2011):
Activity calls are given as the source filed them. The calls are words filed in the database; no cut-off is given here.

How the values were obtained:
Type in all cases: functional
Candida albicans = assay: Antifungal activity against Candida albicans at 200 ug/mL after 48 hrs by agar cup diffusion assay; conditions: for zone of inhibition at 200 µg/mL: read-out: DIZ
Aspergillus niger = assay: Antifungal activity against Aspergillus niger at 200 ug/mL after 48 hrs by agar cup diffusion assay; conditions: for zone of inhibition at 200 µg/mL: read-out: DIZ
Bacillus subtilis = assay: Antibacterial activity against Bacillus subtilis at 200 ug/mL after 24 hrs by agar cup diffusion method; conditions: for zone of inhibition at 200 µg/mL: read-out: DIZ
Penicillium chrysogenum = assay: Antifungal activity against Penicillium chrysogenum at 200 ug/mL after 48 hrs by agar cup diffusion assay
Escherichia coli = assay: Antibacterial activity against Escherichia coli at 200 ug/mL after 24 hrs by agar cup diffusion method; conditions: for zone of inhibition at 200 µg/mL: read-out: DIZ
Bacillus pumilus = assay: Antibacterial activity against Bacillus pumilus at 200 ug/mL after 24 hrs by agar cup diffusion method; conditions: for zone of inhibition at 200 µg/mL: read-out: DIZ
Proteus vulgaris = assay: Antibacterial activity against Proteus vulgaris at 200 ug/mL after 24 hrs by agar cup diffusion method; conditions: for zone of inhibition at 200 µg/mL: read-out: DIZ

| SMILES | zone of inhibition at 200 µg/mL (Candida albicans) [mm] | zone of inhibition at 200 µg/mL (Aspergillus niger) [mm] | diameter of the inhibition zone (DIZ) (Bacillus subtilis) | zone of inhibition at 200 µg/mL (Penicillium chrysogenum; read-out: DIZ) [mm] | diameter of the inhibition zone (DIZ) (Escherichia coli) | diameter of the inhibition zone (DIZ) (Bacillus pumilus) | diameter of the inhibition zone (DIZ) (Proteus vulgaris) | diameter of the inhibition zone (DIZ) (Candida albicans) | diameter of the inhibition zone (DIZ) (Aspergillus niger) | zone of inhibition at 200 µg/mL (Bacillus subtilis) [mm] | diameter of the inhibition zone (DIZ) (Penicillium chrysogenum) | zone of inhibition at 200 µg/mL (Escherichia coli) [mm] | zone of inhibition at 200 µg/mL (Bacillus pumilus) [mm] | zone of inhibition at 200 µg/mL (Proteus vulgaris) [mm] |
| --- | --- | --- | --- | --- | --- | --- | --- | --- | --- | --- | --- | --- | --- | --- |
| C=C1CC[C@H](OC(C)=O)[C@@]2(C)[C@@H](OC(=O)CC(C)C)C[C@@H](OC(C)=O)[C@]3(CO3)[C@@H]2[C@H](OC(C)=O)[C@@]2(O)[C@H](C1)OC(=O)[C@@H]2C | 17 | 18 | inactive | 16 | inactive | inactive | inactive | – | – | – | – | – | – | – |
| CC1(C)S[C@@H]2[C@H](NC(=O)[C@H](N)c3ccccc3)C(=O)N2[C@H]1C(=O)O [AMPICILLIN] | – | – | – | – | – | – | – | inactive | inactive | 17 | inactive | 17 | 18 | 16 |
| C=C1CC[C@H](OC(C)=O)[C@@]2(C)[C@@H](OC(C)=O)[C@@H](OC(C)=O)[C@@H](OC(C)=O)[C@]3(CO3)[C@@H]2[C@H](OC(C)=O)[C@]2(O)[C@@H](C)C(=O)O[C@H]2[C@H]1Cl [GEMMACOLIDE A] | 8 | 10 | – | – | – | – | – | – | – | 10 | inactive | 20 | 19 | 12 |
| C=C1CC[C@H](OC(C)=O)[C@@]2(C)[C@@H](OC(C)=O)[C@@H](OC(=O)CC(C)C)[C@@H](OC(C)=O)[C@]3(CO3)[C@@H]2[C@H](OC(C)=O)[C@]2(O)[C@@H](C)C(=O)O[C@H]2[C@H]1Cl [GEMMACOLIDE B] | 8 | 10 | – | – | – | – | – | – | – | 10 | inactive | 20 | 19 | 12 |
| C=C1CC[C@H](OC(C)=O)[C@@]2(C)[C@@H](OC(=O)CC(C)C)C[C@@H](OC(C)=O)[C@]3(CO3)[C@@H]2[C@H](OC(C)=O)[C@]2(O)[C@@H](C)C(=O)O[C@H]2[C@H]1Cl [JUNCIN H] | – | 6 | – | – | – | – | – | inactive | – | 12 | inactive | 14 | 10 | 13 |
| CC(=O)OCC1=C/[C@@H]2OC(=O)[C@H](C)[C@@]2(O)[C@@H](OC(C)=O)[C@H]2[C@@]3(CO3)[C@H](OC(=O)CC(C)C)C[C@H](OC(=O)CC(C)C)[C@]2(C)[C@@H](OC(C)=O)/C=C\1 [JUNCIN K] | – | 8 | – | – | – | – | – | inactive | – | 13 | inactive | 15 | 13 | 14 |
| CC(=O)N1CCN(c2ccc(OCC3COC(Cn4ccnc4)(c4ccc(Cl)cc4Cl)O3)cc2)CC1 (centres undefined) [KETOCONAZOLE] | 21 | 24 | inactive | – | inactive | inactive | inactive | – | – | – | inactive | – | – | – |
